Reference: patent publication EP4501917A1, “3,4-DIHYDROQUINOXALINE-2-CARBOXIMIDE DERIVATIVE COMPOUND AND PHARMACEUTICAL COMPOSITION COMPRISING SAME FOR PREVENTING OR TREATING CANCER DISEASE” (Daegu-Gyeongbuk Medical Innovation Foundation, priority 2022, dated 2023)

Experiments:
HDAC8 = biological target: T1, HDAC8 (Homo sapiens, UniProt Q9BY41); experiment: HDAC8 inhibitory activity analysis (in vitro), RFU analysis, HDAC Fluorogenic assay kit; assay type: biochemical; conditions: for RFU (%): compound final concentration 10 µM, HDAC substrate 2A 20 µM, positive control (1% DMSO) set to 100, lower = more inhibition; for inhibitory activity against HDAC8: result in words, summary of Table 2, 10 µM
T1 construct: purchased BPS bioscience
T1 sequence (Q9BY41 1-377): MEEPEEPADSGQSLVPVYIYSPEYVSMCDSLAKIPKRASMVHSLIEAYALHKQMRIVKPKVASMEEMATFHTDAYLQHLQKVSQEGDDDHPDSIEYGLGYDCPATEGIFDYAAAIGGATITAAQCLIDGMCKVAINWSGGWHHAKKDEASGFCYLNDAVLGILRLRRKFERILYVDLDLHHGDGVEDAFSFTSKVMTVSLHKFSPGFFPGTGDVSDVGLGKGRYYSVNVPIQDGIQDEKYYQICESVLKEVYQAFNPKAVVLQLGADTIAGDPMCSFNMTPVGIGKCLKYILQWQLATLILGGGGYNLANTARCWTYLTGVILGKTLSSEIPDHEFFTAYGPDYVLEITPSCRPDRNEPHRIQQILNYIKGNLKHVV
Protocol: The compound of the Example was diluted to 1 mM (1% DMSO concentration) using DMSO to obtain a final concentration of 10 µM, and prepared by diluting 1/10 with assay buffer. In a 96-well black round-bottom plate, 5 µL of the diluted compound of the Example, 5 µL of the diluted HDAC substrate 2A, 5 µL of BSA (1 mg/mL), 5 µL of the HDAC8 enzyme diluted to an appropriate concentration, and 30 µL of assay buffer were added, and the enzyme reaction was performed at 37°C for 30 minutes. […] Afterwards, 50 µL of 2X HDAC developer was added to each well. After reacting for 15 minutes at room temperature, the fluorescence values at excitation wavelengths of 350-380 nm and emission wavelengths of 440-460 nm were measured using a microplate reader (Synergy Neo).

[1] = test system: PC-3 prostate cancer cells; experiment: Prostate cancer cell growth inhibition, CCK-8 assay; assay type: cell-based, human; conditions: PC-3 cells, FIG. 1, result in words
Protocol: PC-3, a human-derived prostate cancer cell line, was cultured with RPMI1640 (10% fetal bovine serum, 1% Penicillin Streptomycin) culture medium at 37°C, 5% CO2 condition. All cells in the experiment were subcultured when they reached a confluency of approximately 80% to 90%, and only cells that had not passed 20 passages were used.
After culturing, 10 µL CCK-8 reagent was added and the absorbance was measured after 1 hour. The absorbance was measured at 450 nm using a microplate reader [BMG Labtech (Offenburg, Germany)].

Liver cancer cells Huh-7 = experiment: Liver cancer cell growth inhibition, CellTiter-Glo Luminescent Cell Viability Assay; assay type: cell-based; conditions: Huh-7 cells, various concentrations, day 1, FIG. 6; result in words
Protocol: In addition, an analysis of liver cancer growth inhibitory activity was performed. Liver cancer cells Huh-7 cells were dispensed in a 96-well plate at 1 × 10^4 cells/ml, and after 20 hours, PCI34051, Example 27, and Example 35 were added at various concentrations, and cultured for 24 and 48 hours at 37°C in a 5% CO2 atmosphere. After culturing, 100 µl CellTiter-Glo Luminescent Cell Viability Assay reagent was added and the luminescence signal was measured after 0.5-1 hour. The luminescence signal was measured using IVIS [PerkinElmer, (Waltham, USA)].

| RFU (%) (HDAC8) | Compound | inhibitory activity against HDAC8 (HDAC8) | further results |
| --- | --- | --- | --- |
| 5.81% | Cc1cc2nc(C(=O)Nc3cc(C(=O)NO)ccc3C)c(=O)n(C[C@H](O)[C@H](O)[C@H](O)CO)c2cc1C [Example 51, N-(5-(hydroxycarbamoyl)-2-methylphenyl)-6,7-dimethyl-3-oxo-4-((2S,3S,4R)-2,3,4,5-tetrahydroxypentyl)-3,4-dihydroquinoxaline-2-carboxamide] | inhibitory activity similar to TSA or SAHA | – |
| 34.05% | Cc1cc2nc(C(=O)NCc3ccc4[nH]cnc4c3)c(=O)n(C[C@H](O)[C@H](O)[C@H](O)CO)c2cc1C [Example 34, N-((1H-benzo[d]imidazol-5-yl)methyl)-6,7-dimethyl-3-oxo-4-((2S,3S,4R)-2,3,4,5-tetrahydroxypentyl)-3,4-dihydroquinoxaline-2-carboxamide] | inhibitory activity similar to TSA or SAHA | – |
| 35.15% | Cc1cc2nc(C(=O)NCc3ccc(CC(=O)NO)cc3)c(=O)n(C[C@H](O)[C@H](O)[C@H](O)CO)c2cc1C [Example 49, N-(4-(2-(hydroxyamino)-2-oxoethyl)benzyl)-6,7-dimethyl-3-oxo-4-((2S,3S,4R)-2,3,4,5-tetrahydroxypentyl)-3,4-dihydroquinoxaline-2-carboxamide] | inhibitory activity similar to TSA or SAHA | – |
| 8.23% | Cc1cc2nc(C(=O)Nc3nc4c(F)cccc4[nH]3)c(=O)n(C[C@H](O)[C@H](O)[C@H](O)CO)c2cc1C [Example 35, N-(4-fluoro-1H-benzo[d]imidazol-2-yl)-6,7-dimethyl-3-oxo-4-((2S,3S,4R)-2,3,4,5-tetrahydroxypentyl)-3,4-dihydroquinoxaline-2-carboxamide] | inhibitory activity similar to TSA or SAHA | cell viability ([1]; after 24 hours): concentration-dependent inhibition of cancer cell viability; cell viability ([1]; after 48 hours): cell viability was restored; cell viability (Liver cancer cells Huh-7): concentration-dependent inhibition of cancer cell viability |
| 53.58% | Cc1cc2nc(C(=O)NCc3ccc(C(=O)NO)cc3)c(=O)n(C[C@H](O)[C@H](O)[C@H](O)CO)c2cc1C [Example 47, N-(4-(hydroxycarbamoyl)benzyl)-6,7-dimethyl-3-oxo-4-((2S,3S,4R)-2,3,4,5-tetrahydroxypentyl)-3,4-dihydroquinoxaline-2-carboxamide] | – | – |
| 51.23% | Cc1cc2nc(C(=O)NCc3cccc(C(=O)NO)c3)c(=O)n(C[C@H](O)[C@H](O)[C@H](O)CO)c2cc1C [Example 50, N-(3-(hydroxycarbamoyl)benzyl)-6,7-dimethyl-3-oxo-4-((2S,3S,4R)-2,3,4,5-tetrahydroxypentyl)-3,4-dihydroquinoxaline-2-carboxamide] | – | – |
| 69.48% | COC(=O)C1CCC(NC(=O)c2nc3cc(C)c(C)cc3n(C[C@H](O)[C@H](O)[C@H](O)CO)c2=O)C1 (stereo partly drawn) [Example 33, methyl 3-(6,7-dimethyl-3-oxo-4-((2S,3S,4R)-2,3,4,5-tetrahydroxypentyl)-3,4-dihydroquinoxaline-2-carboxamido)cyclopentane-1-carboxylate] | – | – |
| 41.96% | Cc1cc2nc(C(=O)NC3CCC(C(=O)NO)C3)c(=O)n(C[C@H](O)[C@H](O)[C@H](O)CO)c2cc1C (stereo partly drawn) [Example 52, N-(3-(hydroxycarbamoyl)cyclopentyl)-6,7-dimethyl-3-oxo-4-((2S,3S,4R)-2,3,4,5-tetrahydroxypentyl)-3,4-dihydroquinoxaline-2-carboxamide] | – | – |
| 10.48% | Cc1cc2nc(C(=O)Nc3ccc(C(=O)NO)cc3)c(=O)n(C[C@H](O)[C@H](O)[C@H](O)CO)c2cc1C [Example 48, N-(4-(hydroxycarbamoyl)phenyl)-6,7-dimethyl-3-oxo-4-((2S,3S,4R)-2,3,4,5-tetrahydroxypentyl)-3,4-dihydroquinoxaline-2-carboxamide] | inhibitory activity similar to TSA or SAHA | – |

Second part, the molecule before the results:

| Compound | RFU (%) (HDAC8) | inhibitory activity against HDAC8 (HDAC8) | further results |
| --- | --- | --- | --- |
| Cc1cc2nc(C(=O)NCc3ccc(F)cc3)c(=O)n(C[C@H](O)[C@H](O)[C@H](O)CO)c2cc1C [Example 4, N-(4-fluorobenzyl)-6,7-dimethyl-3-oxo-4-((2S,3S,4R)-2,3,4,5-tetrahydroxypentyl)-3,4-dihydroquinoxaline-2-carboxamide] | 85.71% | – | – |
| Cc1cc2nc(C(=O)Nc3nnc(-c4ccc(Br)cc4)s3)c(=O)n(C[C@H](O)[C@H](O)[C@H](O)CO)c2cc1C [Example 11, N-(5-(4-bromophenyl)-1,3,4-thiadiazol-2-yl)-6,7-dimethyl-3-oxo-4-((2S,3S,4R)-2,3,4,5-tetrahydroxypentyl)-3,4-dihydroquinoxaline-2-carboxamide] | 63.24% | – | – |
| O=C(CCCCCCC(=O)Nc1ccccc1)NO [SAHA, suberoylanilide hydroxamic acid, reference compound] | 38.57% | – | – |
| Cc1cc2nc(C(=O)Nc3cc(-c4ccc(Br)cc4)n[nH]3)c(=O)n(C[C@H](O)[C@H](O)[C@H](O)CO)c2cc1C [Example 12, N-(3-(4-bromophenyl)-1H-pyrazol-5-yl)-6,7-dimethyl-3-oxo-4-((2S,3S,4R)-2,3,4,5-tetrahydroxypentyl)-3,4-dihydroquinoxaline-2-carboxamide] | 58.97% | – | – |
| Cc1cc2nc(C(=O)Nc3cc(-c4ccc(Br)cc4)no3)c(=O)n(C[C@H](O)[C@H](O)[C@H](O)CO)c2cc1C [Example 10, N-(3-(4-bromophenyl)isoxazol-5-yl)-6,7-dimethyl-3-oxo-4-((2S,3S,4R)-2,3,4,5-tetrahydroxypentyl)-3,4-dihydroquinoxaline-2-carboxamide] | 16.61% | inhibitory activity similar to TSA or SAHA | – |
| Cc1cc2nc(C(=O)NCc3nc4ccccc4[nH]3)c(=O)n(C[C@H](O)[C@H](O)[C@H](O)CO)c2cc1C [Example 24, N-((1H-benzo[d]imidazol-2-yl)methyl)-6,7-dimethyl-3-oxo-4-((2S,3S,4R)-2,3,4,5-tetrahydroxypentyl)-3,4-dihydroquinoxaline-2-carboxamide] | 42.03% | – | – |
| Cc1cc2nc(C(=O)NCCc3ccc(Cl)cc3Cl)c(=O)n(C[C@H](O)[C@H](O)[C@H](O)CO)c2cc1C [Example 9, N-(2,4-dichlorophenethyl)-6,7-dimethyl-3-oxo-4-((2S,3S,4R)-2,3,4,5-tetrahydroxypentyl)-3,4-dihydroquinoxaline-2-carboxamide] | 66.28% | – | – |
| Cc1cc2nc(C(=O)NCc3ccc(Cl)c(Cl)c3)c(=O)n(C[C@H](O)[C@H](O)[C@H](O)CO)c2cc1C [Example 8, N-(3,4-dichlorobenzyl)-6,7-dimethyl-3-oxo-4-((2S,3S,4R)-2,3,4,5-tetrahydroxypentyl)-3,4-dihydroquinoxaline-2-carboxamide] | 85.37% | – | – |
| COc1ccc(Cn2ccc3ccc(C(=O)NO)cc32)cc1 [PCI-34051, N-hydroxy-1-(4-methoxybenzyl)-1H-indole-6-carboxamide, reference compound] | 1.86% | – | cell viability (Liver cancer cells Huh-7): concentration-dependent inhibition of cancer cell viability |
| Cc1cc2nc(C(=O)NCc3cc(Cl)cc(Cl)c3)c(=O)n(C[C@H](O)[C@H](O)[C@H](O)CO)c2cc1C [Example 7, N-(3,5-dichlorobenzyl)-6,7-dimethyl-3-oxo-4-((2S,3S,4R)-2,3,4,5-tetrahydroxypentyl)-3,4-dihydroquinoxaline-2-carboxamide] | 54.79% | – | – |
